Assay results published in publication PMC12169615, “Fluorescent 4‑Nitrobenzo-2-oxa-1,3-diazole-Coupled Bile Acids as Probe Substrates of Hepatic and Intestinal Bile Acid Transporters of the Solute Carrier Families SLC10 and SLCO” (Journal of Medicinal Chemistry, 2025).
Several values for one entry are separate records, joined by “and”; a condition that tells them apart may be missing. Equal entries are not always repeated.

What was measured:
mouse mAsbt = target: T1, mouse mAsbt (Mus musculus, UniProt P70172); assay: Fluorescence microscopy screening of cellular uptake of 3-NBD-BA; format: cell-based; parameters: stably transfected with the full open reading frames of human NTCP, ASBT, SOAT, OATP1B1, and OATP1B3 as well as mouse mNtcp and mAsbt; expressed in transfected cells; conditions: 50 μM, 10 min, +Na+ vs -Na+
T1 sequence (P70172 1-348): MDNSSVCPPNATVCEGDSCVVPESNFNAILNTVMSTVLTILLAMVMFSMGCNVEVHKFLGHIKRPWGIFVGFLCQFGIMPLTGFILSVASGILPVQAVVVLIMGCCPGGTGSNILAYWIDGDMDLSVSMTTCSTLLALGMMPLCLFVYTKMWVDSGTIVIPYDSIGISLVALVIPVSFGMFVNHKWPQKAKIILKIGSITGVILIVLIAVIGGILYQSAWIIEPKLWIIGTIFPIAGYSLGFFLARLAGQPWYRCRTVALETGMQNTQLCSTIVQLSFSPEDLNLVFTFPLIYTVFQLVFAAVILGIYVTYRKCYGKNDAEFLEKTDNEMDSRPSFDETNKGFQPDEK
Experimental: Then, all cell lines were cultivated in chamber slides and were grown to confluence to screen for carrier-mediated cellular accumulation of the synthesized NBD-BA. Incubation with the NBD-BA was done in the presence of sodium (+Na^+) as well as in the absence of sodium (-Na^+, negative control) for all SLC10 carriers, namely NTCP, ASBT, mNtcp, mAsbt, and SOAT. For OATP1B1 and OATP1B3, nontransfected HEK293 cells were used as negative control.
4 Screening of the cellular uptake of 3-NBD-BA in HEK293 (HEK) cells stably expressing the human carriers NTCP, ASBT, SOAT, OATP1B1, and OATP1B3, or the mouse carriers mNtcp and mAsbt. For the SLC10 carriers, sodium-free conditions (-Na^+) were used as control. For the OATPs, experiments in non-carrier-expressing HEK293 cells (HEK) served as control. All cell lines were incubated for 10 min with the indicated 3-NBD-BA at 50 μM concentration. Then, cells were washed with PBS and subjected to fluorescence microscopy. Identical microscope settings were used for all images. Scale bar: 75 μm.

human NTCP = target: T2, human NTCP (Homo sapiens, UniProt Q14973); assay: Quantitative uptake of 3-NBD-BA in carrier-expressing HEK293 cells (fluorescence reader); format: cell-based; conditions: NTCP-HEK293, 25 μM, 37 °C, +Na+ vs -Na+
T2 construct: HEK293 cell lines stably transfected with the full open reading frames of human NTCP; expressed in transfected cells
T2 sequence (Q14973 1-349): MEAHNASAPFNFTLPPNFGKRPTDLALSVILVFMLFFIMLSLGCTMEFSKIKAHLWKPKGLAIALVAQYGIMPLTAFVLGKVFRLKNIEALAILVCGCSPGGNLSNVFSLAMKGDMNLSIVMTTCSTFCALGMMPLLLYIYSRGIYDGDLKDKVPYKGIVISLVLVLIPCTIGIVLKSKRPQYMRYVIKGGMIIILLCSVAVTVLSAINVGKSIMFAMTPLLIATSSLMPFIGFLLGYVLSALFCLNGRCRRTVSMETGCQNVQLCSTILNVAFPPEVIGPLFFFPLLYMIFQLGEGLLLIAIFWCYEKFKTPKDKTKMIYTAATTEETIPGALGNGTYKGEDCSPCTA
Experimental: For quantification of the transport activity of the synthesized NBD-BA, all cell lines were seeded on 96 well plates and transport experiments were performed under the same control conditions (-Na^+ control for the SLC10 carriers and nontransfected HEK293 cells for the OATP carriers) as before (Figure ). For each NBD-BA, a substrate concentration of 25 μM was used, and the uptake phase was terminated after 10 min of incubation at 37 °C. […] The transport ratios ranged from 3-fold to 39-fold. In direct comparison, 3α-NBD-TCA (14d) and 3α-NBD-GCA (16d) were transported better than their 3β-analogs 3β-NBD-TCA (14a) and 3β-NBD-GCA (16a), respectively, clearly pointing to a preference for the α-position over the β-position of the 3-NBD-label. In direct comparison between the taurine- or glycine-conjugation of the respective NBD-BA, there was a clear preference for 3α-NBD-GCA (16d) over 3α-NBD-TCA (14d), at least for NTCP and mAsbt, pointing to a favorable substrate recognition for glycine-conjugated NBD-BA.
5 Quantitative uptake experiments with the 3-NBD-BA in HEK293 cells stably expressing the human carriers NTCP, ASBT, SOAT, OATP1B1, and OATP1B3, or the mouse carriers mNtcp and mAsbt. For the SLC10 carriers, all transport experiments were performed in the presence (filled bars) and the absence (hatched bars) of sodium. For the OATP carriers, uptake into carrier-expressing cells (filled bars) was compared to uptake into non-carrier-expressing HEK293 cells (hatched bars). All cell lines were incubated at 37 °C for 10 min with the indicated 3-NBD-BA at 25 μM. Then, cells were washed with PBS and subjected to fluorescence detection. The following fluorescent BA were analyzed: 3α-NBD-TCA (14d), 3β-NBD-TCA (14a), 3α-NBD-GCA (16d), 3β-NBD-GCA (16a), 3β-NBD-TCDCA (14b), 3β-NBD-CDCA (6b), 3β-NBD-DCA (6c), 3α-NBD-CA (6d), and 3β-NBD-CA (6a). Data represent means ± SD of triplicate determinations of representative experiments. […] RFU, relative fluorescence units. TEXT PRINTED IN THE PICTURE: 3α-NBD-TCA (14d): NTCP: 9 X; mNtcp: 30 X; ASBT: 2 X; mAsbt: 14 X | 3ß-NBD-TCA (14a): NTCP: 12 X; mNtcp: 20 X; mAsbt: 18 X | 3α-NBD-GCA (16d): NTCP: 27 X; mNtcp: 26 X; ASBT: 3 X; mAsbt: 39 X | 3ß-NBD-GCA (16a): NTCP: 15 X; mNtcp: 14 X; mAsbt: 5 X | 3ß-NBD-TCDCA (14b): NTCP: 5 X; mNtcp: 3 X; mAsbt: 4 X | 3ß-NBD-CDCA (6b): mNtcp: < 2 X; ASBT: < 2 X; mAsbt: < 2 X; OATP1B1: < 2 X; OATP1B3: < 2 X | 3ß-NBD-DCA (6c): mNtcp: < 2 X; ASBT: < 2 X; mAsbt: < 2 X | 3α-NBD-CA (6d): mNtcp: 2 X; mAsbt: 4 X | 3ß-NBD-CA (6a): NTCP: 2 X; mNtcp: 2 X; mAsbt: 2 X DOUBTS OF THE COPYIST ABOUT THIS PICTURE: The picture prints no panel letters, so the chart titles (NTCP, mNtcp, ASBT, mAsbt, OATP1B1, OATP1B3) are written in front of the values as the target. / Substance labels: the sign after '3' is printed like 'ß' and may be meant as 'β'. / The 'ns' marks and significance asterisks were left out as statistics. The SOAT chart prints only 'ns'.

Compound	Cellular NBD-fluorescence, mAsbt-HEK293 (microscopy) (mouse mAsbt)	Specific transport ratio NTCP (25µM/10 min uptake) (human NTCP)
C[C@H](CCC(=O)NCC(=O)O)[C@H]1CC[C@H]2[C@@H]3[C@H](O)C[C@@H]4C[C@@H](Nc5ccc([N+](=O)[O-])c6nonc56)CC[C@]4(C)[C@H]3C[C@H](O)[C@]12C [16a]	significant increase in cellular NBD-fluorescence compared to the negative control	15x x-fold
12α-Hydroxy-3β-[(7-nitro-2,1,3-benzoxadiazol-4-yl)amino]-5β-cholan-24-oate [6c]	–	ns
C[C@H](CCC(=O)NCC(=O)O)[C@H]1CC[C@H]2[C@@H]3[C@H](O)C[C@@H]4C[C@H](Nc5ccc([N+](=O)[O-])c6nonc56)CC[C@]4(C)[C@H]3C[C@H](O)[C@]12C [16d]	significant increase in cellular NBD-fluorescence compared to the negative control	27x x-fold
C[C@H](CCC(=O)NCCS(=O)(=O)[O-])[C@H]1CC[C@H]2[C@@H]3[C@H](O)C[C@@H]4C[C@H](Nc5ccc([N+](=O)[O-])c6nonc56)CC[C@]4(C)[C@H]3C[C@H](O)[C@]12C.[Na+] [14d]	significant increase in cellular NBD-fluorescence compared to the negative control	9x x-fold
7α-Hydroxy-3β-[(7-nitro-2,1,3-benzoxadiazol-4-yl)amino]-5β-cholan-24-oate [6b]	–	ns
C[C@H](CCC(=O)O)[C@H]1CC[C@H]2[C@@H]3[C@H](O)C[C@@H]4C[C@H](Nc5ccc([N+](=O)[O-])c6nonc56)CC[C@]4(C)[C@H]3C[C@H](O)[C@]12C [6d, 7α,12α-Dihydroxy-3α-[(7-nitro-2,1,3-benzoxadiazol-4-yl)amino]-5β-cholan-24-oate]	–	ns
C[C@H](CCC(=O)O)[C@H]1CC[C@H]2[C@@H]3[C@H](O)C[C@@H]4C[C@@H](Nc5ccc([N+](=O)[O-])c6nonc56)CC[C@]4(C)[C@H]3C[C@H](O)[C@]12C [6a, 7α,12α-Dihydroxy-3β-[(7-nitro-2,1,3-benzoxadiazol-4-yl)amino]-5β-cholan-24-oate]	–	2 x-fold and 2x x-fold
C[C@H](CCC(=O)NCCS(=O)(=O)[O-])[C@H]1CC[C@H]2[C@@H]3[C@H](O)C[C@@H]4C[C@@H](Nc5ccc([N+](=O)[O-])c6nonc56)CC[C@]4(C)[C@H]3C[C@H](O)[C@]12C.[Na+] [14a]	significant increase in cellular NBD-fluorescence compared to the negative control	12x x-fold
